According to ChEMBL document CHEMBL1123826, “Nitrogen bridgehead compounds. 66. Bronchodilator nitrogen bridgehead compounds with a pyrimidinone moiety” (J Med Chem, 1987):

Experiments:
Type in all cases: functional
Conditions in all cases: read-out: ID50 (the source's name)
Cavia porcellus [1] = test: Compound was tested for Bronchodilator activity against histamine-induced spasm in guinea pig by Konzett-Rossler test; dose administered by intraduodenal route.
Cavia porcellus [2] = test: Compound was tested for Bronchodilator activity against serotonin-induced spasm in guinea pig by Konzett-Rossler test; dose administered by intraduodenal route.
Cavia porcellus [3] = test: Compound was tested for Bronchodilator activity against acetylcholine-induced spasm in guinea pig by Konzett-Rossler tes; dose administered by intraduodenal route.

Measured: ED50

CC1CCCCc2nc3c(c(=O)n21)CCCC3 (stereo not drawn)
> 320 µmol/kg: all assays above
